# Data published in patent publication US20230203058A1, “MACROCYCLIC DIAMINE DERIVATIVES AS ENT INHIBITORS FOR THE TREATMENT OF CANCERS, AND COMBINATION THEREOF WITH ADENOSINE RECEPTOR ANTAGONISTS” (ITEOS BELGIUM SA, priority 2020, published 2023).
# Like-named read-outs stand apart in the source and are kept apart here.
# Tests used:
# [1] = test system: stimulated primary human T cells; assay: T cell proliferation assay (rescue of proliferation in presence of ATP, CFSE dilution); assay type: cell-based; settings: 100 uM ATP
# Method: The aim of this study was to determine the potency of equilibrative nucleoside transporter 1 (ENT1) inhibitors to rescue proliferation by stimulated primary human T cells incubated in the presence of 100 uM Adenosine triphosphate (ATP), in baseline conditions (condition A) or in the presence of various proteins known to bind small molecules (condition B). Condition A: X-VIVO15 Condition B: X-VIVO15, 2% Human Serum Albumine (HSA) and 0,1% α-1-Acid Glycoprotein (AAG)
# Cryopreserved purified human CD3+ T cells were thawed and washed twice with RPMI1640 medium, UltraGlutamine containing 10% hiFBS.
# Cells were suspended in PBS containing 10% hiFBS. Cells were stained with CFSE by adding 2 µM solution in PBS, to get a final 1 µM CFSE solution. Cells were incubated while rotating for 5 minutes. Reaction was stopped by adding PBS with 10% FBS and cells were centrifuged for 5 minutes at 1500 rpm.
# Cells were resuspended at 1.6 ×10^6 cells/mL, either in X-VIVO15 medium or in 4% Human Serum Albumin and 0,2% α-1-Acid Glycoprotein. 50 µL of cell suspension (8×10^4 T cells) was added to wells of sterile round-bottom 96-well plates. Cells were activated by adding 50 µL of anti-CD3 anti-CD28 coated microbeads, suspended either in XVIVO-15 medium or in 4% HSA and 0,2% α-1-Acid Glycoprotein, at a ratio of one microbead per two cells. Serial dilutions of the ENT1 inhibitors were prepared in X-VIVO15 from 10 mM stock solutions in DMSO, and 50 µL was added to the wells. ATP powder was diluted in X-VIVO15, and 50 µL of this compound was added to the wells to reach a final assay concentration of 100 µM. Final volume of 200 µL. The experiments were also performed in 384 well plates - all volumes reduced by a factor of 4 (12,5 µL) with a final volume of 50 µL. Experiments were performed in duplicate. The cells were placed in a 37° C. humidified tissue culture incubator with 5% CO2 for 72 hours for 96 well plates, 96 hours for 384 well plates. After 72 or 96 hours, proliferation was measured determined by CFSE dilution via flow cytometry.
# human ENT1 = molecular target: T1, human ENT1 (Homo sapiens, UniProt Q99808); assay: ENT1 binding assay (competition with Sahenta-DY647 on JAR cells); parameters: JAR cells expressing ENT1 were bought from ATCC® (HTB-144TM); host or cells: JAR cells (human choriocarcinoma line; whole cells); settings: competition with Sahenta-DY647 100 nM, 4° C.
# T1 sequence (Q99808 1-456): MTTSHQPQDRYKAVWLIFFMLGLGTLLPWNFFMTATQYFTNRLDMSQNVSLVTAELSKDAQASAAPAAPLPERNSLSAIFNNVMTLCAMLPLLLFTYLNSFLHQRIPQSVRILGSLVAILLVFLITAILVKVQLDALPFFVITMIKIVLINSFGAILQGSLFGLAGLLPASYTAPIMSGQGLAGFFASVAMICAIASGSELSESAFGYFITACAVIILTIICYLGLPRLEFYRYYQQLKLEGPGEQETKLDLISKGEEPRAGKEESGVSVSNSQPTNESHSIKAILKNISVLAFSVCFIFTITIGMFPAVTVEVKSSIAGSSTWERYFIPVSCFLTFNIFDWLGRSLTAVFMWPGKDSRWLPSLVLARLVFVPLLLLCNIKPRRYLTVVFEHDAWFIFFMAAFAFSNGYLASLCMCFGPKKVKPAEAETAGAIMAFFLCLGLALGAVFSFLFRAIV
# Summary of the method: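 Competition binding on intact JAR cells (50000 per well) in HBSS with 10 mM Hepes and 0.1% BSA. Cells pre-incubated with compound 30 min at 4 °C, then Sahenta-DY647 added at its IC90 (100 nM) for another 30 min at 4 °C; after washing, fluorescence read at Ex 630/Em 670 nm.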
# [2] = Condition A: X-VIVO15, read-out: T Cell proliferation (Condition A) IC50
# [3] = Condition B: X-VIVO15, 2% HSA and 0,1% AAG, read-out: (2) T Cell proliferation (Condition B) IC50
Compound,"IC50 [1, 2]","IC50 [1, 3]",IC50 (human ENT1)
"COc1cc(C(=O)O[C@@H]2CCCOc3cccc(c3)C(=O)OCCCN3CCCN(CC2)CC3)cc(OC)c1OC (stereo in doubt) [Compound 18, (12R)-6-oxo-5,8-dioxa-1(1,4)-diazepana-7(1,3)-benzenacyclotetradecaphane-12-yl 3,4,5-trimethoxybenzoate]",0.001 to 0.02 µM,> 0.5 µM,0.001 to 0.02 µM
"COc1cc(C(=O)O[C@@H]2CCCOc3cc(cc(OC)c3OC)C(=O)OCCCN3CCCN(CC2)CC3)cc(OC)c1OC [Compound 1, (12R)-74,75-dimethoxy-6-oxo-5,8-dioxa-1(1,4)-diazepana-7(1,3)-benzenacyclotetradecaphane-12-yl 3,4,5-trimethoxybenzoate]",< 0.001 µM,< 0.001 µM,0.001 to 0.02 µM
"COc1cc(C(=O)O[C@@H]2CCCOc3cc(cc(OC)c3OC)C(=O)OCCCN3CCN(CC2)CC(F)(F)C3)cc(OC)c1OC [Compound 6, (12R)-16,16-difluoro-74,75-dimethoxy-6-oxo-5,8-dioxa-1(1,4)-diazepana-7(1,3)-benzenacyclotetradecaphane-12-yl 3,4,5-trimethoxybenzoate]",< 0.001 µM,0.02 to 0.5 µM,0.001 to 0.02 µM
"COc1cc2cc(c1OC)CCC[C@@H](OC(=O)c1cc(OC)c(OC)c(OC)c1)CCN1CCCN(CCCNC2=O)CC1 [Compound 14, (11R)-74,75-dimethoxy-6-oxo-5-aza-1(1,4)-diazepana-7(1,3)-benzenacyclotridecaphane-11-yl 3,4,5-trimethoxybenzoate]",0.001 to 0.02 µM,> 0.5 µM,0.001 to 0.02 µM
"COc1cc2cc(c1OC)OCCC[C@@H](OC(=O)c1ccccc1)CCN1CCCN(CCCOC2=O)CC1 [Compound 32, (12R)-74,75-dimethoxy-6-oxo-5,8-dioxa-1(1,4)-diazepana-7(1,3)-benzenacyclotetradecaphane-12-yl benzoate]",< 0.001 µM,0.02 to 0.5 µM,–
"COc1cc2cc(c1OC)OCCC[C@H](OC(=O)c1ccccc1)CCN1CCCN(CCCOC2=O)CC1 [Compound 33, (12S)-74,75-dimethoxy-6-oxo-5,8-dioxa-1(1,4)-diazepana-7(1,3)-benzenacyclotetradecaphane-12-yl benzoate]",> 0.5 µM,> 0.5 µM,> 0.5 µM
"COc1cc2cc(c1OC)OCCCC(O/N=C\c1ccccc1)CCN1CCCN(CCCOC2=O)CC1 (stereo not drawn) [Compound 37, (Z)-benzaldehyde O-(74,75-dimethoxy-6-oxo-5,8-dioxa-1(1,4)-diazepana-7(1,3)-benzenacyclotetradecaphane-12-yl) oxime]",0.001 to 0.02 µM,> 0.5 µM,0.02 to 0.5 µM
"COc1cc2cc(c1OC)OCCC[C@@H](O)CCN1CCCN(CCCOC2=O)CC1 [Compound 39, (12R)-12-hydroxy-74,75-dimethoxy-5,8-dioxa-1(1,4)-diazepana-7(1,3)-benzenacyclotetradecaphan-6-one]",0.02 to 0.5 µM,> 0.5 µM,> 0.5 µM
"COc1cc2cc(c1OC)OCCCC(OC(=O)c1ccc(OC(C)C)cc1)CCN1CCCN(CCCOC2=O)CC1 (stereo not drawn) [Compound 43, 74,75-dimethoxy-6-oxo-5,8-dioxa-1(1,4)-diazepana-7(1,3)-benzenacyclotetradecaphane-12-yl 4-isopropoxybenzoate]",< 0.001 µM,0.001 to 0.02 µM,0.02 to 0.5 µM
"COc1cc2cc(c1OC)OCCCC(OC(=O)c1cccc(Oc3ccccc3)c1)CCN1CCCN(CCCOC2=O)CC1 (stereo not drawn) [Compound 46, 74,75-dimethoxy-6-oxo-5,8-dioxa-1(1,4)-diazepana-7(1,3)-benzenacyclotetradecaphane-12-yl 3-phenoxybenzoate]",0.001 to 0.02 µM,0.02 to 0.5 µM,0.02 to 0.5 µM
"COc1cc2cc(c1OC)OCCCC(OC(=O)c1cnccn1)CCN1CCCN(CCCOC2=O)CC1 (stereo not drawn) [Compound 54, 74,75-dimethoxy-6-oxo-5,8-dioxa-1(1,4)-diazepana-7(1,3)-benzenacyclotetradecaphane-12-yl pyrazine-2-carboxylate]",0.02 to 0.5 µM,> 0.5 µM,0.001 to 0.02 µM
"COc1cc2cc(c1OC)OCCCC(OC(=O)c1c[nH]nn1)CCN1CCCN(CCCOC2=O)CC1 (stereo not drawn) [Compound 58, 74,75-dimethoxy-6-oxo-5,8-dioxa-1(1,4)-diazepana-7(1,3)-benzenacyclotetradecaphane-12-yl 1 H-1,2,3-triazole-4-carboxylate]",0.001 to 0.02 µM,> 0.5 µM,0.001 to 0.02 µM
"COc1cc2cc(c1OC)OCCCC(OC(C)=O)CCN1CCCN(CCCOC2=O)CC1 (stereo not drawn) [Compound 59, 74,75-dimethoxy-6-oxo-5,8-dioxa-1(1,4)-diazepana-7(1,3)-benzenacyclotetradecaphane-12-yl acetate]",0.001 to 0.02 µM,> 0.5 µM,0.001 to 0.02 µM
"COc1cc2cc(c1OC)OCCCC(OC(=O)C1CC1)CCN1CCCN(CCCOC2=O)CC1 (stereo not drawn) [Compound 60, 74,75-dimethoxy-6-oxo-5,8-dioxa-1(1,4)-diazepana-7(1,3)-benzenacyclotetradecaphane-12-yl cyclopropanecarboxylate]",0.001 to 0.02 µM,> 0.5 µM,0.001 to 0.02 µM
"COCCC(=O)OC1CCCOc2cc(cc(OC)c2OC)C(=O)OCCCN2CCCN(CC1)CC2 (stereo not drawn) [Compound 93, 74,75-dimethoxy-6-oxo-5,8-dioxa-1(1,4)-diazepana-7(1,3)-benzenacyclotetradecaphane-12-yl 3-methoxypropanoate]",0.001 to 0.02 µM,> 0.5 µM,0.001 to 0.02 µM
"COc1cc2cc(c1OC)OCCCC(OC(=O)CCn1cccn1)CCN1CCCN(CCCOC2=O)CC1 (stereo not drawn) [Compound 94, 74,75-dimethoxy-6-oxo-5,8-dioxa-1 (1,4)-diazepana-7(1,3)-benzenacyclotetradecaphane-12-yl 3-(1H-pyrazol-1-yl)propanoate]",0.001 to 0.02 µM,> 0.5 µM,0.001 to 0.02 µM
"COc1cc2cc(c1OC)OCCCC(OC(=O)CCCC#N)CCN1CCCN(CCCOC2=O)CC1 (stereo not drawn) [Compound 96, 74,75-dimethoxy-6-oxo-5,8-dioxa-1 (1,4)-diazepana-7(1,3)-benzenacyclotetradecaphane-12-yl 4-cyanobutanoate]",0.001 to 0.02 µM,> 0.5 µM,0.001 to 0.02 µM
"COc1cc2cc(c1OC)OCCCC(OC(=O)CCCNC(C)=O)CCN1CCCN(CCCOC2=O)CC1 (stereo not drawn) [Compound 97, 74,75-dimethoxy-6-oxo-5,8-dioxa-1(1,4)-diazepana-7(1,3)-benzenacyclotetradecaphane-12-yl 4-acetamidobutanoate]",< 0.001 µM,> 0.5 µM,0.001 to 0.02 µM
"COc1cc2cc(c1OC)OCCCC(OC(=O)CCC(=O)N(C)C)CCN1CCCN(CCCOC2=O)CC1 (stereo not drawn) [Compound 99, 74,75-dimethoxy-6-oxo-5,8-dioxa-1(1,4)-diazepana-7(1,3)-benzenacyclotetradecaphane-12-yl 4-(dimethylamino)-4-oxobutanoate]",< 0.001 µM,0.02 to 0.5 µM,0.001 to 0.02 µM
"COc1cc2cc(c1OC)OCCCC(OC(=O)CCNC(C)=O)CCN1CCCN(CCCOC2=O)CC1 (stereo not drawn) [Compound 100, 74,75-dimethoxy-6-oxo-5,8-dioxa-1(1,4)-diazepana-7(1,3)-benzenacyclotetradecaphane-12-yl 3-acetamidopropanoate]",0.001 to 0.02 µM,> 0.5 µM,0.001 to 0.02 µM
"COc1cc(C(=O)OC2CCCOc3cc(cc(Cl)c3C#N)C(=O)NCCCN3CCCN(CC2)CC3)cc(OC)c1OC (stereo not drawn) [Compound 123, 75-chloro-74-cyano-6-oxo-8-oxa-5-aza-1(1,4)-diazepana-7(1,3)-benzenacyclotetradecaphane-12-yl 3,4,5-trimethoxybenzoate]",–,–,0.001 to 0.02 µM
